Measured values taken from patent EP1433779A1, “Use of nitriles as inhibitors of non-proteolytic enzymes” (Jerini AG, priority 2002, dated 2004).

How the values were obtained:
Assay in all cases: biochemical
[1] = biological target: Leishmonia pneumophila virulence Cyclosporin A receptor with 18 kDa molecular weight, LpCyp18 (Legionella pneumophila subsp. pneumophila, UniProt Q5ZRZ4)
[2] = biological target: T1, Bacterial Juglon sensitive non proteolytic enzyme, EcParv (Escherichia coli, UniProt P0A9L5)
T1 sequence (P0A9L5 1-93): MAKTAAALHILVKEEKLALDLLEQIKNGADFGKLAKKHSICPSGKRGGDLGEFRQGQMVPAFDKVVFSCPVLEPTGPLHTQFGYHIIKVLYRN

[3] = biological target: Human Cyclosporin A receptor with 18 kDa molecular weight, hCyp18 (Homo sapiens, UniProt P62937)
Chain of Human Cyclosporin A receptor with 18 kDa molecular weight, hCyp18 (P62937 whole entry): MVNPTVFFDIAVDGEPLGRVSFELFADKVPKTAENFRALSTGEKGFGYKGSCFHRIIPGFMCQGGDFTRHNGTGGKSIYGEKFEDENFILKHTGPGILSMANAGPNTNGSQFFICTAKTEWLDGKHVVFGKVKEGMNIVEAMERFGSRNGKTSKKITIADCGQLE

[4] = biological target: First described human Rapamycin receptor, hFKBP12 (Homo sapiens, UniProt P62942)
Chain of First described human Rapamycin receptor, hFKBP12 (P62942 whole entry): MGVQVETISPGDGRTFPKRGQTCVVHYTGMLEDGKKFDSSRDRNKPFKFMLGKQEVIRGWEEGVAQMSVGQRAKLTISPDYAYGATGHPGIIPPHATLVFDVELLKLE

Chain of Leishmonia pneumophila virulence Cyclosporin A receptor with 18 kDa molecular weight, LpCyp18 (Q5ZRZ4 1-164 limits assumed): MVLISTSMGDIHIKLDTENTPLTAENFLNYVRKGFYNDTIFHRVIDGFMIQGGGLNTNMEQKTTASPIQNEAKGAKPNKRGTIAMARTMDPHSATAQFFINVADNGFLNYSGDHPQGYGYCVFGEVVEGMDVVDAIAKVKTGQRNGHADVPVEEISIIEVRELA

**Q.** Which IC50 [1] does the source give for `N#CCCNC(=S)Nc1ccc([N+](=O)[O-])cc1` [Compound 4] here?
**A.** > 100 µM

**Q.** What about the IC50 [2] of the same compound?
**A.** 10 to 50 µM

**Q.** And the IC50 [3]?
**A.** > 100 µM

**Q.** What about the IC50 [4] of the same compound?
**A.** > 100 µM
